Data on 31 compounds can be found in patent US20020115640A1, “Farnesyltransferase inhibitors” (priority 2000, published 2002).

For one assay, the target named is T1, farnesyltransferase (Rattus norvegicus, UniProt Q02293+Q04631).
T1 construct: The enzyme can be purified according to Cell, 62: 81-88 (1990), utilizing steps one, two, and three; from tissue; host or cells: rat brain
T1 sequence (Q02293 whole entry, one chain of several): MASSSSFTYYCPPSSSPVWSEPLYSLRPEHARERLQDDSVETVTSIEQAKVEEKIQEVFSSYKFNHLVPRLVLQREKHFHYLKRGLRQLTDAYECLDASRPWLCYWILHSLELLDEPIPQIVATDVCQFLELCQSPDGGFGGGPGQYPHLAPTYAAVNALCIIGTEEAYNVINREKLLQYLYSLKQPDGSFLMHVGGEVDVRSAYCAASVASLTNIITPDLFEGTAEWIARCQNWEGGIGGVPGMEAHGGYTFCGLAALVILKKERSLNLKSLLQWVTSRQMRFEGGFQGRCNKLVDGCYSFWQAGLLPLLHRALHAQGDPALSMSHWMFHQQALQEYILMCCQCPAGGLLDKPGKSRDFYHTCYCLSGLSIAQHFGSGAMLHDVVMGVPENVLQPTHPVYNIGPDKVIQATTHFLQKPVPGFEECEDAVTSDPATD
As to the kind of experiment: Inhibition of farnesyltransferase (3H-farnesyldiphosphate / H-Ras filter assay). The class given is biochemical. To be noted: test compound at 10^−7 M; 3H-farnesyldiphosphate 0.6 μM, H-Ras 5.0 μM, 37° C., 30 minutes. The text has this:
The ability of the compounds of the present invention to inhibit farnesyltransferase can be measured according to the method described in J. Biol. Chem., 266: 14603 (1991) or J. Biol. Chem., 270:660-664 (1995). Procedures for determination of the inhibition of farnesylation of the oncogene protein Ras are described in J. Biol. Chem., 266:15575-15578 (1991) and U.S. Pat. No. 5,245,061. Inhibition of rat brain farnesyltransferase can also be measured in vitro using an Amersham Life Science commercial scintillation proximity assay kit and substituting a biotin-K Ras B fragment (0.1 μM final concentration) for the biotin-lamin substrate provided by Amersham. The enzyme can be purified according to Cell, 62: 81-88 (1990), utilizing steps one, two, and three. […] The percent inhibition of the farnesylation caused by the compounds of the present invention (at 10^−6 M) compared to an uninhibited control sample can be evaluated in the same Amersham test system.
The mixture was brought to 37° C., treated with enzyme, incubated for 30 minutes, treated with 1 M HCl/ethanol (1 mL) to stop the reaction, stirred for 15 minutes at room temperature, diluted with ethanol (2 mL), filtered through a 2.5 cm glass microfiber filter (Whatman) with ethanol rinses (4×2 mL). The glass transferred to a scintillation vial and treated with scintillation fluid (5 mL). The radioisotope retained on the glass fiber filter was counted and reflected the activity of the enzyme.
“4-(((5-chloro-4′-(trifluoromethyl)(1,1′-biphenyl)-2-yl)methoxy)(1-methyl-1H-imidazol-5-yl)methyl)benzonitrile [Example 26]”: the “% Inhibition at 10^−7 M” value is recorded as 98%.

For the compound `Cn1cncc1C(OCc1ccc(Cl)cc1I)c1ccc(C#N)cc1` (stereo not shown) [Example 1, 4-(((4-chloro-2-iodobenzyl)oxy)(1-methyl-1H-imidazol-5-yl)methyl)benzonitrile], testing at 0.1 µM gave an inhibition of 73%.

`Cn1cncc1C(OCc1ccc(Cl)cc1-c1ccccc1Cl)c1ccc(C#N)cc1` (stereo not shown) [Example 3, 4-(((2′,5-dichloro(1,1′-biphenyl)-2-yl)methoxy)(1-methyl-1H-imidazol-5-yl)methyl)benzonitrile] registered an inhibition at 0.1 µM of 90%.

Compound `Cc1ccccc1-c1cc(Cl)ccc1COC(c1ccc(C#N)cc1)c1cncn1C` (stereo not shown) [Example 4, 4-(((5-chloro-2′-methyl(1,1′-biphenyl)-2-yl)methoxy)(1-methyl-1H-imidazol-5-yl)methyl)benzonitrile] displayed an inhibition at 0.1 µM of 89%.

In turn, `COc1ccccc1-c1cc(Cl)ccc1COC(c1ccc(C#N)cc1)c1cncn1C` (stereo not shown) [Example 5, 4-(((5-chloro-2′-methoxy(1,1′-biphenyl)-2-yl)methoxy)(1-methyl-1H-imidazol-5-yl)methyl)benzonitrile] showed an inhibition at 0.1 µM of 79%.

Consider `Cn1cncc1C(OCc1ccc(Cl)cc1-c1cccc(Cl)c1)c1ccc(C#N)cc1` (stereo not shown) [Example 6, 4-(((3′,5-dichloro(1,1′-biphenyl)-2-yl)methoxy)(1-methyl-1H-imidazol-5-yl)methyl)benzonitrile], for which the inhibition at 0.1 µM is more than 91%.

`Cc1cccc(-c2cc(Cl)ccc2COC(c2ccc(C#N)cc2)c2cncn2C)c1` (stereo not shown) [Example 7, 4-(((5-chloro-3′-methyl(1,1′-biphenyl)-2-yl)methoxy)(1-methyl-1H-imidazol-5-yl)methyl)benzonitrile]: the inhibition at 0.1 µM was more than 85%.

For the compound `Cn1cncc1C(OCc1ccc(Cl)cc1-c1cccc(C(F)(F)F)c1)c1ccc(C#N)cc1` (stereo not shown) [Example 8, 4-(((5-chloro-3′-(trifluoromethyl)(1,1′-biphenyl)-2-yl)methoxy)(1-methyl-1H-imidazol-5-yl)methyl)benzonitrile], 0.1 µM produced 96% inhibition.

`COc1cccc(-c2cc(Cl)ccc2COC(c2ccc(C#N)cc2)c2cncn2C)c1` (stereo not shown) [Example 9, 4-(((5-chloro-3′-methoxy(1,1′-biphenyl)-2-yl)methoxy)(1-methyl-1H-imidazol-5-yl)methyl)benzonitrile] came in with an inhibition at 0.1 µM of more than 91%.

In the case of `Cn1cncc1C(OCc1ccc(Cl)cc1-c1cccc(F)c1)c1ccc(C#N)cc1` (stereo not shown) [Example 10, 4-(((5-chloro-3′-fluoro(1,1′-biphenyl)-2-yl)methoxy)(1-methyl-1H-imidazol-5-yl)methyl)benzonitrile], the inhibition at 0.1 µM was 94%.

In the case of `Cn1cncc1C(OCc1ccc(Cl)cc1-c1ccc(Cl)cc1)c1ccc(C#N)cc1` (stereo not shown) [Example 11, 4-(((4′,5-dichloro(1,1′-biphenyl)-2-yl)methoxy)(1-methyl-1H-imidazol-5-yl)methyl)benzonitrile], the inhibition at 0.1 µM came to 92%.

Compound `Cn1cncc1C(OCc1ccc(Cl)cc1-c1cccc2ccccc12)c1ccc(C#N)cc1` (stereo not shown) [Example 12, 4-(((4-chloro-2-(1-naphthyl)benzyl)oxy)(1-methyl-1H-imidazol-5-yl)methyl)benzonitrile] came in with an inhibition at 0.1 µM of 92%.

Take `Cn1cncc1C(OCc1ccc(Cl)cc1-c1cccc(N)c1)c1ccc(C#N)cc1` (stereo not shown) [Example 13, 4-(((3′-amino-5-chloro(1,1′-biphenyl)-2-yl)methoxy)(1-methyl-1H-imidazol-5-yl)methyl)benzonitrile]: 0.1 µM produced 84% inhibition.

`Cn1cncc1C(OCc1ccc(Cl)cc1-c1cccc(C#N)c1)c1ccc(C#N)cc1` (stereo not shown) [Example 14, 3′-chloro-6′-(((4-cyanophenyl)(1-methyl-1H-imidazol-5-yl)methoxy)methyl)(1,1′-biphenyl)-3-carbonitrile]: the inhibition at 0.1 µM came to 96%.

In turn, `CC(=O)c1ccccc1-c1cc(Cl)ccc1COC(c1ccc(C#N)cc1)c1cncn1C` (stereo not shown) [Example 15, 4-(((2′-acetyl-5-chloro(1,1′-biphenyl)-2-yl)methoxy)(1-methyl-1H-imidazol-5-yl)methyl)benzonitrile] gave an inhibition at 0.1 µM of 82%.

The compound `CC(=O)c1ccc(-c2cc(Cl)ccc2COC(c2ccc(C#N)cc2)c2cncn2C)cc1` (stereo not shown) [Example 16, 4-(((4′-acetyl-5-chloro(1,1′-biphenyl)-2-yl)methoxy)(1-methyl-1H-imidazol-5-yl)methyl)benzonitrile] had an inhibition at 0.1 µM of more than 83%.

As for `Cc1ccc(-c2cc(Cl)ccc2COC(c2ccc(C#N)cc2)c2cncn2C)cc1C` (stereo not shown) [Example 17, 4-(((5-chloro-3′,4′-dimethyl(1,1′-biphenyl)-2-yl)methoxy)(1-methyl-1H-imidazol-5-yl)methyl)benzonitrile], the inhibition at 0.1 µM was more than 85%.

As to `Cn1cncc1C(OCc1ccc(Cl)cc1-c1ccc(C(C)(C)C)cc1)c1ccc(C#N)cc1` (stereo not shown) [Example 18, 4-(((4′-tert-butyl-5-chloro(1,1′-biphenyl)-2-yl)methoxy)(1-methyl-1H-imidazol-5-yl)methyl)benzonitrile], the inhibition at 0.1 µM came out at 97%.

For `CCOc1cccc(-c2cc(Cl)ccc2COC(c2ccc(C#N)cc2)c2cncn2C)c1` (stereo not shown) [Example 19, 4-(((5-chloro-3′-ethoxy(1,1′-biphenyl)-2-yl)methoxy)(1-methyl-1H-imidazol-5-yl)methyl)benzonitrile], the inhibition at 0.1 µM was more than 95%.

Consider `COc1ccc(OC)c(-c2cc(Cl)ccc2COC(c2ccc(C#N)cc2)c2cncn2C)c1` (stereo not shown) [Example 20, 4-(((5-chloro-2′,5′-dimethoxy(1,1′-biphenyl)-2-yl)methoxy)(1-methyl-1H-imidazol-5-yl)methyl)benzonitrile], for which the inhibition at 0.1 µM is 94%.

The compound `COc1ccc(-c2cc(Cl)ccc2COC(c2ccc(C#N)cc2)c2cncn2C)cc1OC` (stereo not shown) [Example 21, 4-(((5-chloro-3′,4′-dimethoxy(1,1′-biphenyl)-2-yl)methoxy)(1-methyl-1H-imidazol-5-yl)methyl)benzonitrile] yielded an inhibition at 0.1 µM of 91%.

`CC(=O)Nc1cccc(-c2cc(Cl)ccc2COC(c2ccc(C#N)cc2)c2cncn2C)c1` (stereo not shown) [Example 22, N-(5′-chloro-2′-(((4-cyanophenyl)(1-methyl-1H-imidazol-5-yl)methoxy)methyl)(1,1′-biphenyl)-3-yl)acetamide] yielded an inhibition at 0.1 µM of 64%.

With `Cn1cncc1C(OCc1ccc(Cl)cc1-c1ccc2c(c1)OCO2)c1ccc(C#N)cc1` (stereo not shown) [Example 23, 4-(((2-(1,3-benzodioxol-5-yl)-4-chlorobenzyl)oxy)(1-methyl-1H-imidazol-5-yl)methyl)benzonitrile], the inhibition at 0.1 µM is more than 92%.

In turn, `COc1cc(-c2cc(Cl)ccc2COC(c2ccc(C#N)cc2)c2cncn2C)cc(OC)c1OC` (stereo not shown) [Example 24, 4-(((5-chloro-3′,4′,5′-trimethoxy(1,1′-biphenyl)-2-yl)methoxy)(1-methyl-1H-imidazol-5-yl)methyl)benzonitrile] returned an inhibition at 0.1 µM of 94%.

Turning to `Cn1cncc1C(OCc1ccc(Cl)cc1-c1cccc(Cl)c1Cl)c1ccc(C#N)cc1` (stereo not shown) [Example 25, 4-((1-methyl-1H-imidazol-5-yl)((2′, 3′,5-trichloro(1,1′-biphenyl)-2-yl)methoxy)methyl)benzonitrile], testing at 0.1 µM gave an inhibition of 87%.

`Cn1cncc1C(OCc1ccc(Cl)cc1-c1cc(Cl)cc(Cl)c1)c1ccc(C#N)cc1` (stereo not shown) [Example 27, 4-((1-methyl-1H-imidazol-5-yl)((3′,5,5′-trichloro(1,1′-biphenyl)-2-yl)methoxy)methyl)benzonitrile]: the inhibition at 0.1 µM stood at 47%.

`Cn1cncc1C(OCc1ccc(Cl)cc1-c1ccc(Cl)c(Cl)c1)c1ccc(C#N)cc1` (stereo not shown) [Example 28, 4-((1-methyl-1H-imidazol-5-yl)((3′,4′,5-trichloro(1,1′-biphenyl)-2-yl)methoxy)methyl)benzonitrile] gave an inhibition at 0.1 µM of more than 85%.

The compound `Cn1cncc1C(OCc1ccc(Cl)cc1-c1ccc(C=O)s1)c1ccc(C#N)cc1` (stereo not shown) [Example 29, 4-(((4-chloro-2-(5-formyl-2-thienyl)benzyl)oxy)(1-methyl-1H-imidazol-5-yl)methyl)benzonitrile] came in with an inhibition at 0.1 µM of 92%.

`Cn1cncc1C(OCc1ccc(Cl)cc1-c1cccc(C=O)c1)c1ccc(C#N)cc1` (stereo not shown) [Example 30, 4-(((5-chloro-3′-formyl(1,1′-biphenyl)-2-yl)methoxy)(1-methyl-1H-imidazol-5-yl)methyl)benzonitrile] yielded an inhibition at 0.1 µM of 92%.

In turn, `CCOc1cccc(-c2cc(C#N)ccc2COC(c2ccc(C#N)cc2)c2cncn2C)c1` (stereo not shown) [Example 32, 6-(((4-cyanophenyl)(1-methyl-1H-imidazol-5-yl)methoxy)methyl)-3′-ethoxy(1,1′-biphenyl)-3-carbonitrile] showed an inhibition at 0.1 µM of more than 98%.

Still in this assay, the particulars now being: test compound at 10^−9 M (stated in the cell); 3H-farnesyldiphosphate 0.6 μM, H-Ras 5.0 μM, 37° C., 30 minutes.
Turning to `Cn1cncc1[C@](O)(COc1ccc(C#N)cc1-c1ccc(OC(F)(F)F)cc1)c1ccc(C#N)cc1` (single isomer, unassigned) [Example 93], the “% Inhibition at 10^−9 M” value was 90 (10^−9M) %.
